For test [1], the target named is T1, DNA gyrase (Escherichia coli) (UniProt P0AES6+P0AES4). Description: Inhibition of Escherichia coli DNA gyrase subunit GyrA/GyrB supercoiling activity at 10 uM using relaxed pBR322 DNA incubated for 15 mins by ethidium bromide staining based gel electrophoresis method. The test is classed as protein-complex assay.
Test [2] addresses T1, DNA gyrase (Escherichia coli). Description: Poison activity at Escherichia coli DNA gyrase assessed as increase in linear DNA generation at 10 uM using supercoiled pBR322 DNA incubated for 10 mins by ethidium bromide staining based gel electrophoresis based DNA cleavage assay relative to untreated control. The test is classed as protein-complex assay.
The species named for test [3] is Homo sapiens. Description: Poison activity at human topoisomerase 2 assessed as increase in linear DNA generation at 5 to 10 uM incubated for 10 mins by ethidium bromide staining based gel electrophoresis based DNA cleavage assay relative to untreated control.
Test [4] is described as follows: Inhibition of human topoisomerase 2 assessed as reduction in decatenatation of kinetoplast DNA incubated for 15 mins by ethidium bromide staining based gel electrophoresis method.
For test [5], the species on record is Homo sapiens. The test is described as follows: Inhibition of human topoisomerase 2 assessed as reduction in decatenatation of kinetoplast DNA at 200 uM incubated for 15 mins by ethidium bromide staining based gel electrophoresis method.
A further test concerns the target DNA gyrase (Escherichia coli, UniProt P0AES4+P0AES6). Description: Inhibition of Escherichia coli DNA gyrase subunit GyrA/GyrB supercoiling activity using relaxed pBR322 DNA incubated for 15 mins by ethidium bromide staining based gel electrophoresis method. The test is classed as protein-complex assay.

These results are taken from ChEMBL document CHEMBL4118134, “Design, synthesis, and evaluation of novel N-1 fluoroquinolone derivatives: Probing for binding contact with the active site tyrosine of gyrase” (Bioorg Med Chem Lett, 2018).

Molecules are shown by their SMILES. Active and inactive are the calls of the source. The calls are words filed in the database; no cut-off is given here.

Usually inhibition stands for the drop in the measured response relative to a control, in per cent. In the case of `COc1c(N2CC[C@@H](CN)C2)c(F)cc2c(=O)c(C(=O)O)cn(CCCCN3C(=O)c4ccccc4C3=O)c12`, the inhibition in test [1] was found to be 20.4%. In test [2], the fold change (FC) is less than 2.

The term IC50 denotes the concentration that gives 50% inhibition. Turning to `COc1cc([C@@H]2c3cc4c(cc3[C@@H](O[C@@H]3O[C@@H]5CO[C@@H](C)O[C@H]5[C@H](O)[C@H]3O)[C@H]3COC(=O)[C@H]23)OCO4)cc(OC)c1O` [ETOPOSIDE], the Activity in the test filed under Homo sapiens [3] lay within 400 to 800%. Also, in test [4], the IC50 is 60 µM.

Consider `CCN1CCN(c2c(F)cc3c(=O)c(C(=O)O)cn(CCCCCN)c3c2OC)CC1`, for which the inhibition in test [1] was less than 5%. Besides, in test [2], the fold change (FC) was less than 2.

In the case of `COc1c(N2CC[C@@H](CN)C2)c(F)cc2c(=O)c(C(=O)O)cn(CCCCN)c12`, in test [1], the inhibition stood at 25.7%. Besides, the fold change (FC) in test [2] is less than 2.

In turn, `COc1c(N2CC[C@@H](CN)C2)c(F)cc2c(=O)c(C(=O)O)cn(CCCN3C(=O)c4ccccc4C3=O)c12` gave an inhibition in test [1] of less than 5%. Also, the fold change (FC) in test [2] is less than 2.

In test [1], `COc1c(N2CC[C@@H](CN)C2)c(F)cc2c(=O)c(C(=O)O)cn(CCc3ccccc3)c12` gave an inhibition of 11%. Besides, in test [2], the fold change (FC) is less than 2.

`COc1c(N2CC[C@@H](CN)C2)c(F)cc2c(=O)c(C(=O)O)cn(CCCCCN)c12` showed an inhibition in test [1] of 12.3%. The fold change (FC) in test [2] was less than 2.

In the case of `COc1c(N2CC[C@@H](CN)C2)c(F)cc2c(=O)c(C(=O)O)cn(Cc3ccccc3)c12`, the inhibition in test [1] amounted to 37.7%. Also, in test [2], the fold change (FC) was less than 2.

`CCN1CCN(c2c(F)cc3c(=O)c(C(=O)O)cn(Cc4ccccc4)c3c2OC)CC1`: in test [1], the inhibition stood at 23.3%. The fold change (FC) in test [2] is less than 2.

Consider `COc1ccc(Cn2cc(C(=O)O)c(=O)c3cc(F)c(N4CC[C@@H](CN)C4)c(OC)c32)cc1`, for which, in test [1], the inhibition was 25.2%. Further, the fold change (FC) in test [2] is less than 2.

`COc1c(N2CC[C@@H](CN)C2)c(F)cc2c(=O)c(C(=O)O)cn(CCCCCN3C(=O)c4ccccc4C3=O)c12`: the inhibition in test [1] stood at 20.2%. In addition, the fold change (FC) in test [2] is less than 2.

For `COc1c(N2CC[C@@H](CN)C2)c(F)cc2c(=O)c(C(=O)O)cn(CCCN)c12`, the inhibition in test [1] was less than 5%. Also, the fold change (FC) in test [2] was less than 2.

For the compound `COc1c(N2CC[C@@H](CN)C2)c(F)cc2c1N(C1CC1)CC(C(=O)O)C2=O` (stereo not given in full), the inhibition result in the test filed under Homo sapiens [5] is “inactive”. In addition, the half-inhibitory concentration (IC50) against DNA gyrase stood at 0.12 µM. This compound also displayed an inhibition in test [1] of more than 96%. In addition, the fold change (FC) in test [2] is more than 4.

In test [1], `COc1c(N2CC[C@@H](CN)C2)c(F)cc2c(=O)c(C(=O)O)cn(CCCc3ccccc3)c12` yielded an inhibition of 27.1%. Also, in test [2], the fold change (FC) was less than 2.
